Read-outs that look alike come from different tables or passages of the source.
Columns and labels:
hNudt16E76Q [1] = molecular target: T1, hNudt16E76Q (Homo sapiens, UniProt Q96DE0, E76Q); test: Microscale thermophoresis (MST) binding, two independent binding sites model; conditions: for ΔGdiss1 (for Kd1): calculated as −RTlnKd from MST Kd1; for ΔGdiss2 (for Kd2): calculated as −RTlnKd from MST Kd2
T1 construct: 4xHis (four added histidines); made in house; host or cells: E. coli Rosetta 2 (DE3), pET16b
T1 sequence (Q96DE0 whole entry E76Q): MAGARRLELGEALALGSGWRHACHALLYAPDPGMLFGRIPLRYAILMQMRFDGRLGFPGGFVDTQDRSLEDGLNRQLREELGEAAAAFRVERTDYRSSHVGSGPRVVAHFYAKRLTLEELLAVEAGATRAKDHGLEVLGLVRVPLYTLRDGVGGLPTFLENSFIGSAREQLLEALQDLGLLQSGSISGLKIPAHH
Method: Binding constants for protein–ligand pairs were established using the MST method. The hNudt16 E76Q was labeled with RED-tris-NTA 2nd Generation dye (Monolith HIS-tag labeling Kit, NanoTemper Technologies, München, Germany) according to the manufacturer’s instructions. Measurements were carried out in a wide range of ligand concentrations, selected after preliminary tests for each of the ligands. The results obtained were used to determine of binding parameters for a given ligand. Each MST measurement consisted of a series of 16 serial 1:2 dilutions of the ligand, and was performed at a constant dye-labeled protein concentration of 50 nM. After 10 min of pre-incubation, dye-labeled protein–ligand samples were manually loaded into Monolith™ NT.115 Premium Capillaries (NanoTemper Technologies, München, Germany) and analyzed using the Monolith NT.115 (NanoTemper Technologies). […] Analysis was performed using Origin package (OriginLab, Northampton, MA, USA) and dissociation constants were fitted globally for a series of at least six MST pseudo-titration experiments for each ligand. Up to 10 replicates were performed for some ligands.
For the dissociation constants obtained, we also calculated the free energy associated with the dissociation of the complex ΔGdiss according to the equation: ΔGdiss=−RTlnKd.

hNudt16 = hNudt16 (Homo sapiens, UniProt Q96DE0); test: Enzymatic hydrolysis catalyzed by hNudt16, products quantified by HPLC; assay type: biochemical; parameters: 4xHis (four added histidines); made in house; conditions: 20 µM substrate, 37 °C; for Hydrolysis Products / Hydrolysis Rate, v/[E]0 (hydrolyzed substrate per minute per [enzyme] µM) / Hydrolysis Rate, v/µg (hydrolyzed substrate per minute per enzyme µg): pH 7.9, 6 mM MgCl2, nd = hydrolysis products not detected; for Susceptibility to hydrolysis by hNudt16 (in words): HPLC
hNudt16, sequence (Q96DE0 whole entry): as the sequence (Q96DE0 whole entry E76Q) above, with Q76E counted along it
Method: Enzymatic hydrolysis catalyzed by hNudt16 was performed at 37 °C in 40 mM Tris buffer (pH 7.9) containing 100 mM NaCl, 6 mM MgCl2, and 2 mM DTT. The concentration of the investigated dinucleotides and mononucleotides was 20 µM in the reaction mixture.
The hydrolytic susceptibility of the compounds was studied using HPLC. Before each experiment, 1 mL of buffer solution containing the analyte was incubated at 37 °C for 10 min. The hydrolysis process was initiated by the addition of hNudt16. To analyze the reaction progress, 200-µL aliquots of the reaction mixture were withdrawn and incubated at 96 °C for 5 min to stop the reaction through heat inactivation of the enzyme. The samples were then subjected to an HPLC system (Agilent 1200 series, Agilent Technologies, California, USA) with a reverse-phase Supelcosil LC-18-T column and UV/VIS detector. The substrates and hydrolysis products were eluted at 20 °C with a linear gradient of methanol in 0.1 M KH2PO4 (from 0% to 40%) over 15 min at a flow rate of 1.0 mL/min. Changes in the absorbance at 260 nm were continuously monitored during the analysis. Hydrolysis products were identified by comparing their retention times with those of the reference samples. The extent of decapping, determined as the percentage of the hydrolyzed substrate, was calculated using the area under the chromatographic peak of the respective compounds.

hNudt16E76Q [2] = molecular target: T1, hNudt16E76Q; test: Thermal stability of hNudt16E76Q with ligands, dye-free nanoDSF; assay type: binding; conditions: for Tm, nanoDSF (Dye-Free) / ∆Tm, nanoDSF (Dye-Free): 5 µM hNudt16E76Q, 20 mM MgCl2, 0.5 mM ligand; for ∆Tm, nanoDSF (Dye-Free): relative to apo
Method: (§1) Protein thermal stability in the presence of various ligands was measured using two DSF methods: assays with SYPRO orange dye and dye-free assays. DSF assays with SYPRO orange dye were performed at specific ligand concentrations for each protein–ligand pair. This measurement was performed as described in Section 4.6.1, with a constant MgCl2 concentration of 20 mM and a concentration of the tested ligand maintained at 0.5 mM. DSF dye-free measurements were performed using a Prometheus NT.48 nanoDSF device (NanoTemper Technologies, München, Germany). The composition of the samples was identical to that in the DSF with SYPRO orange dye measurements, without the addition of any dye. […] The measurements were performed at a single ligand concentration for all ligands. After 10 min of pre-incubation, the samples were loaded into standard capillaries (NanoTemper Technologies, München, Germany). […] We fitted the melting temperatures (Tm) globally for at least three independent experiments (but separately for different DSF methods).

hNudt16E76Q [3] = molecular target: T1, hNudt16E76Q; test: Thermal stability of hNudt16E76Q with ligands, DSF with SYPRO Orange; assay type: binding; conditions: 5 µM hNudt16E76Q, 20 mM MgCl2, 0.5 mM ligand, 4× SYPRO Orange; for ∆Tm, DSF (with SYPRO Orange): relative to apo
Method: The protein thermal stability of wild-type hNudt16 and all tested mutants in the presence of increasing Mg^2+ ion concentration was measured using DSF with SYPRO orange dye on CFX RT-PCR (Bio-Rad, Hercules, CA, USA). This method is based on the change in fluorescence of the SYPRO orange dye in an aqueous buffer, which is strongly quenched, while its binding to the exposed hydrophobic regions of thermally unfolded protein results in an increased fluorescence. The optimal concentrations of protein, SYPRO orange dye, and buffer composition, in particular ion content, were determined. The samples were prepared and measured in clear 96-well multiplate PCR plates for RT-PCR (Bio-Rad, Hercules, CA, USA). […] The individual components of the solution were added in equal volumes to each well, with a final sample volume of 25 μL/well. The samples were gently mixed, and the 96-well plate was covered with optically clear PCR sealing tape (Bio-Rad, Hercules, CA, USA) to prevent evaporation. […] The data processing procedure was performed using Bio-Rad CFX Manager (version 1.6.541.1028), and melting point temperatures were calculated as the minimum of the first derivative plot.
as §1

[4] = stronger binding site, 50 nM dye-labeled protein, read-out: Kd1
[5] = second, weaker binding site, read-out: Kd2

Compound	ΔGdiss1 (for Kd1) (hNudt16E76Q [1]) [kJ/mol]	Kd (hNudt16E76Q [1]; [4]) [µM]	Hydrolysis Products (hNudt16)	Hydrolysis Rate, v/[E]0 (hydrolyzed substrate per minute per [enzyme] µM) (hNudt16)	Hydrolysis Rate, v/µg (hydrolyzed substrate per minute per enzyme µg) (hNudt16) [µM/min/µg]	Tm, nanoDSF (Dye-Free) (hNudt16E76Q [2]) [°C]	∆Tm, nanoDSF (Dye-Free) (hNudt16E76Q [2]) [°C]	Tm, DSF (with SYPRO Orange) (hNudt16E76Q [3]) [°C]	∆Tm, DSF (with SYPRO Orange) (hNudt16E76Q [3]) [°C]	ΔGdiss2 (for Kd2) (hNudt16E76Q [1]) [kJ/mol]	Kd (hNudt16E76Q [1]; [5]) [µM]	Susceptibility to hydrolysis by hNudt16 (in words) (hNudt16)	ΔTm relative to the apo form, both DSF and nanoDSF (hNudt16E76Q [2]; 0.5 mM ligand, stated for both types of measurements)
Nc1ncnc2c1ncn2[C@@H]1O[C@H](COP(=O)(O)OP(=O)(O)OC[C@H]2O[C@@H](n3cnc4c(N)ncnc43)[C@H](O)[C@@H]2O)[C@@H](O)[C@H]1O [AppA]	17.54	833	AMP	40.8 ± 2.9 µM/min/[E]0	1.70 ± 0.12	66.8 ± 0.1	1.7 ± 0.1	65.2 ± 0.1	1.5 ± 0.1				
Nc1ccn([C@@H]2O[C@H](COP(=O)(O)OP(=O)(O)O)[C@@H](O)[C@H]2O)c(=O)n1 [CDP, Cytidine diphosphate]						66.8 ± 0.1	1.66 ± 0.1	65.6 ± 0.1	1.81 ± 0.1				
Nc1nc2c(ncn2[C@@H]2O[C@H](COP(=O)(O)OP(=O)(O)O)[C@@H](O)[C@H]2O)c(=O)[nH]1 [GDP, Guanosine diphosphate]	37.53	0.258 ± 0.045				78.6 ± 0.1	13.5 ± 0.1	77.0 ± 0.1	13.3 ± 0.1	24.73	45.6 ± 2.4		
Nc1nc2c(ncn2[C@@H]2O[C@H](COP(=O)(O)OP(=O)(O)OP(=O)(O)OC[C@H]3O[C@@H](n4cnc5c(=O)[nH]c(N)nc54)[C@H](O)[C@@H]3O)[C@@H](O)[C@H]2O)c(=O)[nH]1 [GpppG]						76.0 ± 0.1	10.9 ± 0.1	74.8 ± 0.1	11.0 ± 0.1				
O=c1[nH]cnc2c1ncn2[C@@H]1O[C@H](COP(=O)(O)OP(=O)(O)O)[C@@H](O)[C@H]1O [IDP, Inosine diphosphate]	42.00					82.9 ± 0.1	17.8 ± 0.1	81.5 ± 0.1	17.8 ± 0.1	33.80	1.2 ± 0.2	very rapid hydrolysis reaction	17.5–18.0 °C
NC(=O)c1ccc[n+]([C@@H]2O[C@H](COP(=O)([O-])OP(=O)(O)OC[C@H]3O[C@@H](n4cnc5c(N)ncnc54)[C@H](O)[C@@H]3O)[C@@H](O)[C@H]2O)c1 [NAD, Nicotinamide adenine dinucleotide]			NMN + AMP	3.4 ± 0.4 µM/min/[E]0	0.14 ± 0.02	66.1 ± 0.1	1.1 ± 0.1	63.7 ± 0.1	0.0 ± 0.1				
NC(=O)C1=CN([C@@H]2O[C@H](COP(=O)(O)OP(=O)(O)OC[C@H]3O[C@@H](n4cnc5c(N)ncnc54)[C@H](O)[C@@H]3O)[C@@H](O)[C@H]2O)C=CC1 [NADH, Reduced NAD+]			AMP + NMNH	18.7 ± 1.5 µM/min/[E]0	0.78 ± 0.06	67.4 ± 0.1	2.4 ± 0.1	64.9 ± 0.1	1.1 ± 0.1				
CC(C)(COP(=O)(O)OP(=O)(O)OC[C@H]1O[C@@H](n2cnc3c(N)ncnc32)[C@H](O)[C@@H]1O)[C@@H](O)C(=O)NCCC(=O)NCCS [dpCoA, Dephospho-coenzyme A]	24.90	43	AMP + dpCop	18.0 ± 1.3 µM/min/[E]0	0.75 ± 0.05	68.1 ± 0.1	3.1 ± 0.1	67.0 ± 0.1	3.3 ± 0.1	≤10.38	≥ 15000		
C[n+]1cn([C@@H]2O[C@H](COP(=O)(O)OP(=O)(O)O)[C@@H](O)[C@H]2O)c2nc(N)[nH]c(=O)c21 [m^7GDP, 7-methylguanosine diphosphate]						66.7 ± 0.1	1.6 ± 0.1	64.4 ± 0.1	0.7 ± 0.1			resistant to hydrolytic cleavage	
Cn1c[n+]([C@@H]2O[C@H](COP(=O)(O)OP(=O)([O-])OP(=O)(O)OC[C@H]3O[C@@H](n4cnc5c(=O)[nH]c(N)nc54)[C@H](O)[C@@H]3O)[C@@H](O)[C@H]2O)c2nc(N)[nH]c(=O)c21 [m^7GpppG]	33.58	1.7				73.5 ± 0.1	8.4 ± 0.1	72.3 ± 0.1	8.5 ± 0.1		230 ± 57		

— PMC8535469, “Insight into the Binding and Hydrolytic Preferences of hNudt16 Based on Nucleotide Diphosphate Substrates” (International Journal of Molecular Sciences, 2021)
